Laboratory results: patent EP0352863A2, “1,4-Dihydropyridine dicarboxylic acid derivatives” (ZAMBON GROUP S.p.A., priority 1988, dated 1990)
Where two headings read alike, the source gives them in different places.

Experiments:
rabbit mesenteric artery = assay: calcium-antagonist activity, rabbit mesenteric artery test (antagonism of 3 mM Ca++ in Krebs depolarizer); details: Ca++ submaximal concentration 3mM, read-out: IC₅₀
Method: Calcium-antagonist activity of the compounds of formula I has been tested as capability of antagonizing the effect of Ca⁺⁺ submaximal concentrations (3mM) on preparations of rabbit mesenteric artery in Krebs depolarizer, prepared according to Towart "J. Cardiovasc. Pharmacol. 4, 895, (1982)".
The compounds of this invention, tested as calcium antagonist agents on the rabbit mesnteric artery show an IC₅₀ of from 10 to 200 (nM); Ki affinity for beta₁ receptors is of from 30 to 2000 (nM) and for beta₂ receptors is of from 20 to 5000 (nM).

beta₁ heart receptors = target: T1, beta₁ heart receptors (Mus musculus, UniProt P34971); assay: binding test, beta1 heart receptors
T1 construct: from tissue; host or cells: mouse heart
Excerpt: (§1) Moreover, the beta-blocking activity has been tested by means of the binding test both towards beta₁ heart receptors and towards beta₂ lung receptor in mouse according to the methods described in the J. Biol. Chem., 253, 5090, (1978) and in the Br. j. Pharmacol., 68, 57, (1980).

beta₂ lung receptor = target: T2, beta₂ lung receptor (Mus musculus, UniProt P18762); assay: binding test, beta2 lung receptors
T2 construct: Ki (nM) mouse lung beta₂ receptors; from tissue; host or cells: mouse lung
Excerpt: as §1

anesthetized dog = assay: heart rate and mean arterial pressure in the anesthetized dog; type: in vivo; details: doses of from 100 to 400 ug/kg
Method: The compounds of formula I produce antihypertensive effects in mouse and dog with concomitant reduction of the heart rate.
For example, in the anesthetized dog, compound 1 caused a heart rate reduction of from 9 to 23% and a reduction of the mean arterial pressure of from 3 to 15% at doses of from 100 to 400 ug/kg; at the same doses diastereoisomer A caused a heart rate reduction of from 17 to 30% and a mean arterial pressure reduction of from 12 to 25%, respectively.

T1 sequence (P34971 whole entry): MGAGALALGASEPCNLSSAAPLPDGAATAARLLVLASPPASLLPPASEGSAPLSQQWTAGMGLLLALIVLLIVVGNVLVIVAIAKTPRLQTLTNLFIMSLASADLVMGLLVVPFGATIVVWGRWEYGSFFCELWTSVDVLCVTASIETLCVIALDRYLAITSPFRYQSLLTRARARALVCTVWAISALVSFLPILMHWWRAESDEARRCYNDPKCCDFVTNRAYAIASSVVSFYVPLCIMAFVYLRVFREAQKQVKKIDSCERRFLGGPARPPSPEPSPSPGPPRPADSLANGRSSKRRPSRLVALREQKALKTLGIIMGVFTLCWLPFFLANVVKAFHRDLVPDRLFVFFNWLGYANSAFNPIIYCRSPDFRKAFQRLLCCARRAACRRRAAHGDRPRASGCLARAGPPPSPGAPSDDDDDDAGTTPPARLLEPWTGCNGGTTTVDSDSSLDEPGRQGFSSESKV
T2 sequence (P18762 whole entry): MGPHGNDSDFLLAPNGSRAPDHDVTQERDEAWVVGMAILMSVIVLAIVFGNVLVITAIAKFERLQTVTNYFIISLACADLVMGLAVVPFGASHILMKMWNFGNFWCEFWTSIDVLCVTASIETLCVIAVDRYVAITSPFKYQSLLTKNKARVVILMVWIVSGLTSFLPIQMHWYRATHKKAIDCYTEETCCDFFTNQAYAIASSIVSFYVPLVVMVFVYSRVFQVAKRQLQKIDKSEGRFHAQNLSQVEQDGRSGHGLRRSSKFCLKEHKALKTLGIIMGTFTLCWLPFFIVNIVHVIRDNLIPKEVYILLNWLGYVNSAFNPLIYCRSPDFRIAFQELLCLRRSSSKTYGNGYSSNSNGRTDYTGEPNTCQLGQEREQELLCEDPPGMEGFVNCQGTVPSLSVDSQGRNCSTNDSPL

IC50 (rabbit mesenteric artery; Oryctolagus cuniculus)	IC50 (rabbit mesenteric artery)	Ki (beta₁ heart receptors)	Ki (beta₂ lung receptor)	Compound	duration of hypotensive effect and bradycardia (anesthetized dog)
47 nM				CCOC(=O)C1=C(C)NC(CN(C)CC(C)(C)NCC(O)COc2ccccc2OC)=C(C(=O)OCC)C1c1cccc([N+](=O)[O-])c1 (stereo not shown) [Compound 1, ethyl 1,4-dihydro-6-methyl-2-(N-methyl-N-(2-(2-hydroxy-3-(2-methoxyphenoxy)-propylamino)-2-methylpropyl)aminomethyl)-4-(3-nitrophenyl)-3,5-pyridinedicarboxylate]	
	15 nM	600 nM	2050 nM	CCOC(=O)C1=C(C)NC(CN(C)CC(C)(C)NCC(O)COc2ccccc2OC)=C(C(=O)OCC)C1c1cccc([N+](=O)[O-])c1 (single isomer, unassigned) [diastereoisomer A]	lasting over five hours
		840 nM	18000 nM	CC(C)NCC(O)COc1ccc(CC(N)=O)cc1 (stereo not shown) [atenolol, reference compound]	
	120 nM	165 nM	560 nM	CCOC(=O)C1=C(C)NC(CN(C)CC(C)(C)NCC(O)COc2ccccc2OC)=C(C(=O)OCC)C1c1cccc([N+](=O)[O-])c1 (single isomer, unassigned) [diastereoisomer B]	
